Data reported in patent US7452876B2, “Cyclopropyl fused indolobenzazepine HCV NS5B inhibitors” (Bristol-Myers Squibb Company, priority 2006, dated 2008).

Tests used:
[1] = target: T1, HCV NS5B RdRp genotype 1b (Hepatitis C virus genotype 1b, UniProt Q9WMX2); experiment: Modified HCV NS5B RdRp enzyme assay (preincubation protocol); assay type: biochemical
T1 construct: The protein was expressed with an 18 amino acid C-terminal truncation to enhance the solubility; made in house; host or cells: E. coli BL21 (DE3), pET21a
T1 sequence (Q9WMX2 2420-2992): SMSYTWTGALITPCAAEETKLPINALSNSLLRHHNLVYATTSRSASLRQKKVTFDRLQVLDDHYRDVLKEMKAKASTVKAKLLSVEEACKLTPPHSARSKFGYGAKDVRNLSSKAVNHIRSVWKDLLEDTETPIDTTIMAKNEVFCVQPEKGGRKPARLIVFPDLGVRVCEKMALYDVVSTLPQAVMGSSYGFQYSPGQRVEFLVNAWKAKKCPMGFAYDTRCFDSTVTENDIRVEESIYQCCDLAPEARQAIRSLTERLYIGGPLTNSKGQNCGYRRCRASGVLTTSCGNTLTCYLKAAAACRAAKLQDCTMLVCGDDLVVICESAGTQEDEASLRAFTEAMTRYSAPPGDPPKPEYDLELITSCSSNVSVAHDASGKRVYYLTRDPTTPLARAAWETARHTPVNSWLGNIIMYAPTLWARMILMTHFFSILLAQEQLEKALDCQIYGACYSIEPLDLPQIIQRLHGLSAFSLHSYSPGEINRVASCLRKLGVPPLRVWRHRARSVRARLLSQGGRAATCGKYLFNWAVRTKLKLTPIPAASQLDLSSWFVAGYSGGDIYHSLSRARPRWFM
Method: HCV NS5B RdRp cloning, expression, and purification. The cDNA encoding the NS5B protein of HCV, genotype 1b, was cloned into the pET21a expression vector. The protein was expressed with an 18 amino acid C-terminal truncation to enhance the solubility. The E. coli competent cell line BL21 (DE3) was used for expression of the protein. Cultures were grown at 37° C. for ˜4 hours until the cultures reached an optical density of 2.0 at 600 nm. The cultures were cooled to 20° C. and induced with 1 mM IPTG. Fresh ampicillin was added to a final concentration of 50 μg/ml and the cells were grown overnight at 20° C.
Cell pellets (3L) were lysed for purification to yield 15-24 mgs of purified NS5B. The lysis buffer consisted of 20 mM Tris-HCl, pH 7.4, 500 mM NaCl, 0.5% triton X-100, 1 mM DTT, 1 mM EDTA, 20% glycerol, 0.5 mg/ml lysozyme, 10 mM MgCl2, 15 ug/ml deoxyribonuclease I, and Complete TM protease inhibitor tablets (Roche). After addition of the lysis buffer, frozen cell pellets were resuspended using a tissue homogenizer. To reduce the viscosity of the sample, aliquots of the lysate were sonicated on ice using a microtip attached to a Branson sonicator. The sonicated lysate was centrifuged at 100,000×g for 1 hr at 4° C. and filtered through a 0.2 μm filter unit (Corning).
The protein was purified using three sequential chromatography steps: Heparin sepharose CL-6B, polyU sepharose 4B, and Hitrap SP sepharose (Pharmacia). The chromatography buffers were identical to the lysis buffer but contained no lysozyme, deoxyribonuclease I, MgCl2 or protease inhibitor and the NaCl concentration of the buffer was adjusted according to the requirements for charging the protein onto the column. Each column was eluted with a NaCl gradient which varied in length from 5-50 column volumes depending on the column type. After the final chromatography step, the resulting purity of the enzyme is >90% based on SDS-PAGE analysis. The enzyme was aliquoted and stored at −80° C.
Standard HCVNS5B RdRp enzyme assay. HCV RdRp genotype 1b assays were run in a final volume of 60 μl in 96 well plates (Costar 3912). The assay buffer is composed of 20 mM Hepes, pH 7.5, 2.5 mM KCl, 2.5 mM MgCl2, 1 mM DTT, 1.6 U RNAse inhibitor (Promega N2515), 0.1 mg/ml BSA (Promega R3961), and 2% glycerol. All compounds were serially diluted (3-fold) in DMSO and diluted further in water such that the final concentration of DMSO in the assay was 2%. HCV RdRp genotype 1b enzyme was used at a final concentration of 28 nM. A polyA template was used at 6 nM, and a biotinylated oligo-dT 12 primer was used at 180 nM final concentration. Template was obtained commercially (Amersham 27-4110). Biotinylated primer was prepared by Sigma Genosys. 3H-UTP was used at 0.6 μCi (0.29 μM total UTP). Reactions were initiated by the addition of enzyme, incubated at 30° C. for 60 min, and stopped by adding 25 μl of 50 mM EDTA containing SPA beads (4 μg/μl, Amersham RPNQ 0007). Plates were read on a Packard Top Count NXT after >1 hr incubation at room temperature.
Modified HCVNS5B RdRp enzyme assay. A modified enzyme assay was performed essentially as described for the standard enzyme assay except for the following: The biotinylated oligo dT12 primer was precaptured on streptavidin-coated SPA beads by mixing primer and beads in assay buffer and incubating at room temperature for one hour. Unbound primer was removed after centrifugation. The primer-bound beads were resuspended in 20 mM Hepes buffer, pH 7.5 and used in the assay at final concentrations of 20 nM primer and 0.67 μg/μl beads. Order of addition in the assay: enzyme (14 nM) was added to diluted compound followed by the addition of a mixture of template (0.2 nM), 3H-UTP (0.6 μCi, 0.29 μM), and primer-bound beads, to initiate the reaction; concentrations given are final. Reactions were allowed to proceed for 4 hours at 30° C.
IC50 values for compounds were determined using seven different [I]. […]

HCV replicon cells = experiment: HCV replicon FRET assay; assay type: cell-based; details: Hepatitis C virus
Source text: FRET Assay Preparation. To perform the HCV FRET screening assay, 96-well cell culture plates were used. The FRET peptide (Anaspec, Inc.) (Taliani et al., Anal. Biochem. 1996, 240, 60-67) contains a fluorescence donor, EDANS, near one end of the peptide and an acceptor, DABCYL, near the other end. The fluorescence of the peptide is quenched by […] resonance energy transfer (RET) between the donor and the acceptor, but as the NS3 protease cleaves the peptide the products are released from RET quenching and the fluorescence of the donor becomes apparent. The assay reagent was made as follows: 5× cell Luciferase cell culture lysis reagent from Promega (#E153A) diluted to 1× with dH2O, NaCl added to 150 mM final, the FRET peptide diluted to 20 uM final from a 2 mM stock.
To prepare plates, HCV replicon cells, with or without a Renilla luciferase reporter gene, were trypsinized and placed into each well of a 96-well plate with titrated test compounds added in columns 3 through 12; columns 1 and 2 contained a control compound (HCV protease inhibitor), and the bottom row contained cells without compound. The plates were then placed in a CO2 incubator at 37° C.
Assays. Subsequent to addition of the test compounds described above (FRET Assay Preparation), at various times the plate was removed and Alamar blue solution (Trek Diagnostics, #00-100) was added per well as a measure of cellular toxicity. After reading in a Cytoflour 4000 instrument (PE Biosystems), plates were rinsed with PBS and then used for FRET assay by the addition of 30 ul of the FRET peptide assay reagent described above (FRET Assay Preparation) per well. The plate was then placed into the Cytoflour 4000 instrument which had been set to 340 excite/490 emission, automatic mode for 20 cycles and the plate read in a kinetic mode. Typically, the signal to noise using an endpoint analysis after the reads was at least three-fold. Alternatively, after Alamar blue reading, plates were rinsed with PBS, 50 ul of DMEM (high glucose) without phenol red was added and plates were then used for luciferase assay using the Promega Dual-Glo Luciferase Assay System.
Compound analysis was determined by quantification of the relative HCV replicon inhibition and the relative cytotoxicity values. To calculate cytoxicity values, the average Alamar Blue fluorescence signals from the control wells were set as 100% non-toxic. The individual signals in each of the compound test wells were then divided by the average control signal and multiplied by 100% to determine […]. To calculate the HCV replicon inhibition values, an average background value was obtained from the two wells containing the highest amount of HCV protease inhibitor at the end of the assay period. These numbers were similar to those obtained from naïve Huh-7 cells.
The background numbers were then subtracted from the average signal obtained from the control wells and this number was used as 100% activity. The individual signals in each of the compound test wells were then divided by the averaged control values after background subtraction and multiplied by 100% to determine percent activity. EC50 values for a protease inhibitor titration were calculated as the concentration which caused a 50% reduction in FRET or luciferase activity. The two numbers generated for the compound plate, percent cytoxicity and percent activity were used to determine compounds of interest for further analysis.

| Compound | IC50 [1] [nM] | EC50 (HCV replicon cells) [nM] |
| --- | --- | --- |
| COCCNC(=O)CN(C)C(=O)NC12CC1c1cc(OC)ccc1-c1c(C3CCCCC3)c3ccc(C(=O)NS(=O)(=O)N(C)C)cc3n1C2 (stereo not shown) | 20 to 1000 | 20 to 1000 |
| COc1ccc2c(c1)C1CC1(NC(=O)N(C)CC(=O)N1CCN(C)CC1)Cn1c-2c(C2CCCCC2)c2ccc(C(=O)NS(=O)(=O)N(C)C)cc21 (stereo not shown) | 20 to 1000 | 20 to 1000 |
| COc1ccc2c(c1)C1CC1(NC(=O)N1C[C@@H](C)N(C)[C@@H](C)C1)Cn1c-2c(C2CCCCC2)c2ccc(C(=O)NS(=O)(=O)N(C)C)cc21 (stereo partly shown) | 20 to 1000 | 20 to 1000 |
| COc1ccc2c(c1)[C@@H]1C[C@]1(N)Cn1c-2c(C2CCCCC2)c2ccc(C(=O)NS(=O)(=O)N(C)C)cc21 | 20 to 1000 | 20 to 1000 |
| COC(=O)c1ccc2c(C3CCCCC3)c3n(c2c1)CC1(NC(=O)N2CCOCC2)CC1c1ccccc1-3 (stereo not shown) | 20 to 1000 | – |
| COc1ccc2c(c1)C1CC1(NC(=O)N(C)CCN(C)C)Cn1c-2c(C2CCCCC2)c2ccc(C(=O)NS(=O)(=O)N(C)C)cc21 (stereo not shown) | 20 to 1000 | 20 to 1000 |
| COc1ccc2c(c1)C1CC1(NC(=O)N1CC(OC)C1)Cn1c-2c(C2CCCCC2)c2ccc(C(=O)NS(=O)(=O)N(C)C)cc21 (stereo not shown) | 20 to 1000 | 20 to 1000 |
| COc1ccc2c(c1)C1CC1(NC(=O)N(C)CC1CCOCC1)Cn1c-2c(C2CCCCC2)c2ccc(C(=O)NS(=O)(=O)N(C)C)cc21 (stereo not shown) | 20 to 1000 | 20 to 1000 |
| COC(=O)c1ccc2c(C3CCCCC3)c3n(c2c1)CC1(NC(=O)N2CCOCC2)CC1c1cc(OC)ccc1-3 (stereo not shown) | 20 to 1000 | – |
| COc1ccc2c(c1)C1CC1(NC(=O)N1C[C@@H](C)O[C@@H](C)C1)Cn1c-2c(C2CCCCC2)c2ccc(C(=O)NS(=O)(=O)N(C)C)cc21 (stereo partly shown) | 20 to 1000 | 70 to 1000 |
| COc1ccc2c(c1)C1CC1(NC(=O)N1CCOCC1)Cn1c-2c(C2CCCCC2)c2ccc(C(=O)O)cc21 (stereo not shown) | 20 to 1000 | 70 to 1000 |
| CNC12CC1c1cc(OC)ccc1-c1c(C3CCCCC3)c3ccc(C(=O)NS(=O)(=O)N(C)C)cc3n1C2 (stereo not shown) | 20 to 1000 | – |
| COc1ccc2c(c1)C1CC1(N)Cn1c-2c(C2CCCCC2)c2ccc(C(=O)NS(=O)(=O)N(C)C)cc21 (stereo not shown) | 20 to 1000 | 20 to 1000 |
| COc1ccc2c(c1)C1CC1(NC(=O)OC(C)(C)C)Cn1c-2c(C2CCCCC2)c2ccc(C(=O)NS(=O)(=O)N(C)C)cc21 (stereo not shown) | 20 to 1000 | 20 to 1000 |
| COc1ccc2c(c1)[C@@H]1C[C@]1(NC(=O)OC(C)(C)C)Cn1c-2c(C2CCCCC2)c2ccc(C(=O)NS(=O)(=O)N(C)C)cc21 | 20 to 1000 | 20 to 1000 |
| O=C(O)c1ccc2c(C3CCCCC3)c3n(c2c1)CC1(NC(=O)N2CCOCC2)CC1c1ccccc1-3 (stereo not shown) | 20 to 1000 | 70 to 1000 |
| COc1ccc2c(c1)C1CC1(NC(=O)N(C)CC(N)=O)Cn1c-2c(C2CCCCC2)c2ccc(C(=O)NS(=O)(=O)N(C)C)cc21 (stereo not shown) | 20 to 1000 | 20 to 1000 |
